The test system of series [1] is Hepatitis C virus. The experiment in a line: Antiviral activity against HCV genotype 1b infected in human HuH7 cells assessed as inhibition of viral RNA replication after 72 hrs by luciferase reporter gene assay. To be noted: Huh-7, 72 h. It counts as functional, organism-based, Hepacivirus hominis. In general terms: A reporter such as luciferase makes a cellular process visible.

The nature of series [2]: Selectivity index, ratio of CC50 for human HuH7 cells to EC50 for HCV genotype 1b infected in human HuH7 cells. Also noted: species or system Huh-7.
Series [3] in a line: Cytotoxicity against human HEK293 cells after 72 hrs by MTT assay. It counts as cell-based. In general terms: Formazan colour is commonly taken as a measure of viable cells.
Series [4] addresses T1, Inhibitor of nuclear factor kappa-B kinase subunit alpha (Homo sapiens) (UniProt O15111).
T1 sequence (whole entry): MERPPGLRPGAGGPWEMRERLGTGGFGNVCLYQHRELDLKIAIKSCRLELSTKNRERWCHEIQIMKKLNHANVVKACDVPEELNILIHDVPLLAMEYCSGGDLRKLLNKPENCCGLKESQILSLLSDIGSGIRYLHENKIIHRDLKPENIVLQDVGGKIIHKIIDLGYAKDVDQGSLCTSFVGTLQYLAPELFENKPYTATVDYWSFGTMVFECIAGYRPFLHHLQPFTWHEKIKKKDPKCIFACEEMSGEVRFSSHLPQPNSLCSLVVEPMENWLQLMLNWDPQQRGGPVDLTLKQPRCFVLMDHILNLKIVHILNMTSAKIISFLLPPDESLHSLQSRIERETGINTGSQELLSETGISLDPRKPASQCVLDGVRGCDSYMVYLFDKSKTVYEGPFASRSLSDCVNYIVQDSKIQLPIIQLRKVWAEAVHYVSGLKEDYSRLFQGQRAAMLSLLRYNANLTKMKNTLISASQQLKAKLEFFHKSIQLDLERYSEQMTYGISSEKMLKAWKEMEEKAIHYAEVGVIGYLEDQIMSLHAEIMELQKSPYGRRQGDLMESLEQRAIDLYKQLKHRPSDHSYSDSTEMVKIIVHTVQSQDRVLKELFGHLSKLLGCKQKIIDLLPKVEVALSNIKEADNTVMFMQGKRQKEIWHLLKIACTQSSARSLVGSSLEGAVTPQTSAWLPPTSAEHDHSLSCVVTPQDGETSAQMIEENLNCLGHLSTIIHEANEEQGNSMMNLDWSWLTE
The experiment in a line: Inhibition of human IKKalpha at 10 uM after 40 mins by scintillation counting analysis in presence of [gamma-33P]ATP.

Series [5] has as its target T2, Inhibitor of nuclear factor kappa-B kinase subunit beta (Homo sapiens) (UniProt O14920).
T2 sequence (whole entry): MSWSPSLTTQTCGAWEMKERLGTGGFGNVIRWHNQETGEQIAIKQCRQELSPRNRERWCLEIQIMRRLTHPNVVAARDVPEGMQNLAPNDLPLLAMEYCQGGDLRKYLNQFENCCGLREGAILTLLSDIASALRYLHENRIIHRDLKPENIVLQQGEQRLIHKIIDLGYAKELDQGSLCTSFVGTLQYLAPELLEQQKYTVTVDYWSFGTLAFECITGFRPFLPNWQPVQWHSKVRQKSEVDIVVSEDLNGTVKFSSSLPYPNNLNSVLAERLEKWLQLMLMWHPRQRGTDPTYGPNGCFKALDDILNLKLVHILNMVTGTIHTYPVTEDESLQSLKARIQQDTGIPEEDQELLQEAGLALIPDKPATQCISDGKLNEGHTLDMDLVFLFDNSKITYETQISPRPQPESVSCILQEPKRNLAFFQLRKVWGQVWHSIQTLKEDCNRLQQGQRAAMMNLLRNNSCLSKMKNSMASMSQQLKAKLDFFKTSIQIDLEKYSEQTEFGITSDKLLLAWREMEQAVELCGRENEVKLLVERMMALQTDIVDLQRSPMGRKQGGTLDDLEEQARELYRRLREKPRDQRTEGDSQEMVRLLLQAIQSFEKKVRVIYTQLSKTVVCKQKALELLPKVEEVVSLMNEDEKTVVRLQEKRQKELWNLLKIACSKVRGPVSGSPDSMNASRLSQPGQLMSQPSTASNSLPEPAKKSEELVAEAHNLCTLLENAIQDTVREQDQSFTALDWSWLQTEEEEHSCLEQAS
The experiment in a line: Inhibition of human IKKbeta at 10 uM after 40 mins by scintillation counting analysis in presence of [gamma-33P]ATP.

Series [6] can be described thus: Cytotoxicity against human HuH7 cells after 72 hrs by MTT assay. It counts as cell-based, Huh-7.
Series [7] can be described thus: Cytotoxicity against human LO2 cells after 72 hrs by MTT assay. It counts as cell-based, L02.
In series [8] the test system is Hepatitis C virus. The experiment in a line: Antiviral activity against HCV genotype 1b infected in human HuH7 cells assessed as inhibition of viral RNA replication at 20 uM after 72 hrs by luciferase reporter gene assay. It counts as functional, Hepacivirus hominis. To be noted: Huh-7, 72 h.

Bounds are passed on as bounds.

Usually EC50 stands for the concentration needed to bring the measured effect to its halfway point. The term CC50 denotes the concentration giving 50% cytotoxicity. A lower CC50 goes with greater toxicity to the cells. By inhibition is commonly meant how much of the control response was suppressed. `COc1ccc(-c2cc(C(F)(F)F)c3c(N)c(C(N)=O)sc3n2)cc1`: the EC50 with Hepatitis C virus [1] amounted to 4 µM. Besides, in series [2], the “Ratio CC50/EC50” value came to 11.6. Also, the 50% cytotoxic concentration (CC50) at 72 h came out at 24.7 µM in series [3], 46.4 µM in series [6] and 26.2 µM in series [7]. The inhibition came to 7% in series [4] and 6% in series [5].

With `COc1cccc(-c2cc(C(F)(F)F)c3c(N)c(C(N)=O)sc3n2)c1`, the inhibition at 20 µM in the series with Hepatitis C virus [8] is 45%. The cytotoxic concentration (CC50) at 72 h in series [6] was over 20 µM.

For the origin of these results see ChEMBL document CHEMBL3124910, “Discovery and structure-activity relationships study of novel thieno[2,3-b]pyridine analogues as hepatitis C virus inhibitors” (Bioorg Med Chem Lett, 2014).
